The values that follow are results of earlier work, collected in patent US20110144198A1, “BREAST CANCER PROGNOSTICS” (ATLAS ANTIBODIES AB, priority 2008, published 2011).

Data set [1] concerns ERα positive (ERα+) patients.
For another data set, the system named is ERα+/PR− tumors. The conditions noted are these: follow-up period of 6 years.

For the compound `CC/C(=C(\c1ccccc1)c1ccc(OCCN(C)C)cc1)c1ccccc1` [tamoxifen], the “fraction of ERα+ patients that do not respond to treatment” value in data set [1] is reported as 30-40%.

For the compound `CC(C)(C#N)c1cc(Cn2cncn2)cc(C(C)(C)C#N)c1` [anastrozole], in the data set on ERα+/PR− tumors, the “recurrence rate compared to patients treated with tamoxifen” value is “halved”.
